Experimental data published in patent US20260070924A1, “INDAZOLE MACROCYCLES AND THEIR USE” (BLOSSOMHILL THERAPEUTICS, INC., priority 2022, published 2026).
Read-outs that look alike come from different tables or passages of the source.

Assays:
MV-4-11 cells = assay: MV-4-11 cell proliferation assay (CellTiter-Glo 2.0); type: cell-based; conditions: MV-4-11, 384-well, 11-dose dilution series, read-out: IC50, inhibition of MV-4-11 cell proliferation
Description: MV-4-11 cell line was purchased from ATCC and maintained in RPMI medium supplemented with 10% fetal bovine serum and 100 U/mL of penicillin/streptomycin. One thousand MV-4-11 cells/50 μl per well were seeded in white 384-well plate, followed by treatment with indicated compounds in a 11-dose dilution series. Cell proliferation was measured using CellTiter-Glo 2.0 luciferase-based ATP detection assay (Promega, Madison, WI) following the manufacturer's protocol. Plates were then read on a TECAN Sparks multimode microplate reader. Data was analyzed using GraphPad Prism 9 (GraphPad Software, San Diego, CA) to obtain IC50 values.

CLK1 = CLK1 (Homo sapiens (Human), UniProt P49759); assay: CLK kinase activity assay (ADP-Glo); type: biochemical
Sequence of CLK1 (P49759 whole entry): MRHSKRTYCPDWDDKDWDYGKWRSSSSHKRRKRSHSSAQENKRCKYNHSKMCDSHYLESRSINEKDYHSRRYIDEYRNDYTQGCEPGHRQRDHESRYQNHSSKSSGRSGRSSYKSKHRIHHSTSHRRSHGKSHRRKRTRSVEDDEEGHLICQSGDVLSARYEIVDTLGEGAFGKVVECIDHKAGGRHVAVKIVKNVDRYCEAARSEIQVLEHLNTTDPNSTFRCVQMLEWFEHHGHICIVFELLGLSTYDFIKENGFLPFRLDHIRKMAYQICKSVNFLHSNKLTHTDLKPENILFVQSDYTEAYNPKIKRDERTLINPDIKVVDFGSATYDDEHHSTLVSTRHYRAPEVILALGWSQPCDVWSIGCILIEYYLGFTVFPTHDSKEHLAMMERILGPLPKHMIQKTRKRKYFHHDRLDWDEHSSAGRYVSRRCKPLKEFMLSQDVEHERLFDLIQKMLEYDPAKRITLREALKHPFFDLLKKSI
Description: (§1) Kinase protein and substrate were pre-diluted in the HEPES assay buffer (100 mM HEPES, pH 7.5, 0.01% Triton X-100, 0.1% BSA, 5 mM MgCl2, 1 mM DTT, 10 μM Sodium Orthovanadate, 10 μM Beta-Glycerophosphate) dispensed into 384 well plate (5 μL per well). Control samples (0%-inhibition in the absence of inhibitor, DMSO only) and 100%-inhibition (in the absence of enzyme) were assembled in replicates of six and were used to calculate %-inhibition in the presence of compounds. Test compounds were added to the protein samples by acoustic dispensing (Labcyte Echo550). Concentration of DMSO was equalized to 1% in all samples. Reactions were initiated by addition of ATP by acoustic dispensing (Labcyte Echo550) and incubated according to assay specific incubation time. After incubation, 5 uL of Promega ADP-Glo reagent was added and incubated for 40 minutes. After 40 minutes, 10 uL of Promega kinase detection reagent was added. After 10 min of incubation with Kinase detection reagent, the luminescence was read on microplate reader (Biotek Synergy).

CLK2 = CLK2 (Homo sapiens (Human), UniProt P49760); assay: CLK kinase activity assay (ADP-Glo); type: biochemical
Sequence of CLK2 (P49760 whole entry): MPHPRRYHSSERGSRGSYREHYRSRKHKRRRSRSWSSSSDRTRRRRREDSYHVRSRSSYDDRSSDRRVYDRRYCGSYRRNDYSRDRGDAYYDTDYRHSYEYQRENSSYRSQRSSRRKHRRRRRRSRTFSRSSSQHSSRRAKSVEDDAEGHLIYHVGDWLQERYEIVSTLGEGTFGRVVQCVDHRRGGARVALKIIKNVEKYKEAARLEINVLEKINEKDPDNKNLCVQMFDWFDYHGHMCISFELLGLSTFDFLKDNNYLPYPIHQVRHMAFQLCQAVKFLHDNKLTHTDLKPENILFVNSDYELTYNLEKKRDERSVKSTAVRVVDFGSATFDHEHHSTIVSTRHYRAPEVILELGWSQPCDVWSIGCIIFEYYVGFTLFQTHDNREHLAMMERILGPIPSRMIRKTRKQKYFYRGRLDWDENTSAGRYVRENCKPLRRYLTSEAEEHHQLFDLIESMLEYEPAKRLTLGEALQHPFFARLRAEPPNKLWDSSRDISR
Description: as §1

CLK3 = CLK3 (Homo sapiens (Human), UniProt P49761); assay: CLK kinase activity assay (ADP-Glo); type: biochemical
Sequence of CLK3 (P49761 whole entry): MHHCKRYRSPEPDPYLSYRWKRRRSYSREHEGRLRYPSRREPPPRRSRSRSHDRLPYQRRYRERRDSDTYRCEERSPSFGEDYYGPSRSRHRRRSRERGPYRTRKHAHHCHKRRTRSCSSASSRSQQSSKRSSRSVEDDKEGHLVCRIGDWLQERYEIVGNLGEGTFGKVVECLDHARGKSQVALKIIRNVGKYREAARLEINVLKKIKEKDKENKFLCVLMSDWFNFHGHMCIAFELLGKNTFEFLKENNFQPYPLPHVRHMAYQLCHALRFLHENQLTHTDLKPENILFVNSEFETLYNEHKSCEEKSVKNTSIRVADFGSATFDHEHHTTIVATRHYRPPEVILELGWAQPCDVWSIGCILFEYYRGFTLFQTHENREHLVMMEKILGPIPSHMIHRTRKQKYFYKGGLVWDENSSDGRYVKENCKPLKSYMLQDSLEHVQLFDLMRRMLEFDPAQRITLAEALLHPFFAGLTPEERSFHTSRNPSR
Description: as §1

CLK4 = CLK4 (Homo sapiens (Human), UniProt Q9HAZ1); assay: CLK kinase activity assay (ADP-Glo); type: biochemical
Sequence of CLK4 (Q9HAZ1 whole entry): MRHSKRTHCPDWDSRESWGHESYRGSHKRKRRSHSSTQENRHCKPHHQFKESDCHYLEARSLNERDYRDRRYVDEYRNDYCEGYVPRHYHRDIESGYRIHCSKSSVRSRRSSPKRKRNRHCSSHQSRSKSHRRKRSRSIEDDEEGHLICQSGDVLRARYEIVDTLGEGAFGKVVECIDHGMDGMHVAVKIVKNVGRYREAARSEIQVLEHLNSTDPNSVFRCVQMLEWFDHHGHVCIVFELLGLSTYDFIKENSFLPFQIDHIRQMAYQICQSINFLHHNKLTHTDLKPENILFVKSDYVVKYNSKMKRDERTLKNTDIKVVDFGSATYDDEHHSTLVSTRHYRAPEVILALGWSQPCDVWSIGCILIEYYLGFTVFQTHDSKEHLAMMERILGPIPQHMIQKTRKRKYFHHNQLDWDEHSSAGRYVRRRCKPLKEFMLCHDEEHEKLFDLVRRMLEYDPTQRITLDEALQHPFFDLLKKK
Description: as §1

FLT3 = FLT3 (Homo sapiens (Human), UniProt P36888); assay: HotSpot radiometric kinase assay (Reaction Biology); type: biochemical
Sequence of FLT3 (P36888 27-993): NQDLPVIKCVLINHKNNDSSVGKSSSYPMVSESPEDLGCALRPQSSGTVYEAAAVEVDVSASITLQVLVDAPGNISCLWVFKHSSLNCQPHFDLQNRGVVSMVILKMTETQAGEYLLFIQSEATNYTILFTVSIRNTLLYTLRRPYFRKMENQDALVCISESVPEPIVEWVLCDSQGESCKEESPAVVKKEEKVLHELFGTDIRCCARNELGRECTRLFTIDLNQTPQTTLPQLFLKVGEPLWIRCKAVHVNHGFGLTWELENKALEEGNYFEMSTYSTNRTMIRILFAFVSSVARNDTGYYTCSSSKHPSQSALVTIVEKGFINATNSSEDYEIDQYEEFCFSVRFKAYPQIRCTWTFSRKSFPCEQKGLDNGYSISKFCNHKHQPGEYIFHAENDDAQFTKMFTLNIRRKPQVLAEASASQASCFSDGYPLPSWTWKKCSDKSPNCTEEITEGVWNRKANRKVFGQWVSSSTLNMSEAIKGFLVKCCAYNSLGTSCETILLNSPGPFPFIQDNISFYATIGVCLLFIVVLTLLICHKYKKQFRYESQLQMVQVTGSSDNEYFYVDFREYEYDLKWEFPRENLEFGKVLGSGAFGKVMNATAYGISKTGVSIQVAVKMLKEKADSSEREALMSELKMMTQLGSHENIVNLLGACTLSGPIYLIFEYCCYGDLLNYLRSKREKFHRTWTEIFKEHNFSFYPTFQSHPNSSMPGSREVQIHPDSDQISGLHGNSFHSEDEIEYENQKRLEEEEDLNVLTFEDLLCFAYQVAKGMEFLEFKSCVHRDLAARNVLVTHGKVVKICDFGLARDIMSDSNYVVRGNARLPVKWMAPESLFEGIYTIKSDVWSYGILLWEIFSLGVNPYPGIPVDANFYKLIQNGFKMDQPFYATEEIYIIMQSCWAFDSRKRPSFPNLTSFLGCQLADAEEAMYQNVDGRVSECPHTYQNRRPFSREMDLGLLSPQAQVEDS

FLT3-ITD = FLT3-ITD (Homo sapiens, UniProt P36888, ITD); assay: as above; type: biochemical
Sequence of FLT3-ITD (P36888 whole entry, looked up, change not shown): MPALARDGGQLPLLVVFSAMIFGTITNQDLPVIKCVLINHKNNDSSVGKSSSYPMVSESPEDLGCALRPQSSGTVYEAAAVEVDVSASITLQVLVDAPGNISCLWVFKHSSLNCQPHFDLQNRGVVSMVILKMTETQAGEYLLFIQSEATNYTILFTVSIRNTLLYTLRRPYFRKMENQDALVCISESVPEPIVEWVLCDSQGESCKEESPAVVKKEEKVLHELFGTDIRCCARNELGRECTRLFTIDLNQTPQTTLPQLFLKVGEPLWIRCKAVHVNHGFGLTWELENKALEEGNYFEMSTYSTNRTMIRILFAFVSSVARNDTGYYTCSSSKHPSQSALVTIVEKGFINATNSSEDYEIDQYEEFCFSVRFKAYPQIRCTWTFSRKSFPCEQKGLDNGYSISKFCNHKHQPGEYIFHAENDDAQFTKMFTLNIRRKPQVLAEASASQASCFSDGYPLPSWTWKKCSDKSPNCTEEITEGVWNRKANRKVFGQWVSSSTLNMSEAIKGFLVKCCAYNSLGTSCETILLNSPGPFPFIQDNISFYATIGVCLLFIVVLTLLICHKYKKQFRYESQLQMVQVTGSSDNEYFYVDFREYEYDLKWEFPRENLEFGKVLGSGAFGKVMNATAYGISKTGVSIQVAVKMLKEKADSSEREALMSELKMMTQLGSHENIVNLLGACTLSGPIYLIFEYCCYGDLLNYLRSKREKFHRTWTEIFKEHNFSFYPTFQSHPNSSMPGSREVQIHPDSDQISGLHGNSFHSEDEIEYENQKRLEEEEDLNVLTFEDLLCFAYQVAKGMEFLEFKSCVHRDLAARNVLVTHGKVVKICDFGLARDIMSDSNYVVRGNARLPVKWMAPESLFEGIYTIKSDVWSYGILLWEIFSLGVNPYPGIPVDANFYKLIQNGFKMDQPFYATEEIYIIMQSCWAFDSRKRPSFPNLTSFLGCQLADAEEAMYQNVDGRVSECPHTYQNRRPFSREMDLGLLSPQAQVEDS

| Compound | IC50 (MV-4-11 cells; Homo sapiens, MV4-11) | IC50 (CLK1) | IC50 (CLK2) | IC50 (CLK3) | IC50 (CLK4) | IC50 (FLT3) | IC50 (FLT3-ITD) | IC50 (MV-4-11 cells) |
| --- | --- | --- | --- | --- | --- | --- | --- | --- |
| CCc1c2c(nn1C)C(=O)N(C)CCOc1ccc(F)cc1-c1ccc3[nH]nc(c3c1)/C=C/2 [Ex. 1, (18E)-17-ethyl-7-fluoro-13,16-dimethyl-2,12,13,16-tetrahydro-3,5-ethenodipyrazolo[3,4-f:3′,4′-j][1,4]benzoxazacyclopentadecin-14(11H)-one] | 1160 nM |  |  |  |  |  |  |  |
| CCc1nn(C)c2c1/C=C/c1n[nH]c3ccc(cc13)-c1cc(F)ccc1OCCN(C)C2=O [Ex. 2, (18E)-17-ethyl-7-fluoro-13,15-dimethyl-2,12,13,15-tetrahydro-3,5-ethenodipyrazolo[3,4-f:3′,4′-j][1,4]benzoxazacyclopentadecin-14(11H)-one] | 353 nM |  |  |  |  |  |  |  |
| Cc1c2c(nn1C)C(=O)NCCOc1c(cnn1C)-c1ccc3[nH]nc(c3c1)/C=C/2 [Ex. 10, (17E)-8,15,16-trimethyl-2,11,12,15-tetrahydro-8H-3,5-ethenotripyrazolo[3,4-f:3′,4′-j:4″,3″-n][1,4]oxazacyclopentadecin-13(10H)-one] | 865 nM |  |  |  |  |  |  |  |
| Cc1nn(C)c2c1/C=C/c1n[nH]c3ccc(cc13)-c1cnn(C)c1OCCCN(C)C2=O [Ex. 13, (18E)-8,13,15,17-tetramethyl-2,10,11,12,13,15-hexahydro-3,5-ethenotripyrazolo[3,4-g:3′,4′-k:4″,3″-o][1,5]oxazacyclohexadecin-14(8H)-one] | 15.5 nM |  |  |  |  |  |  |  |
| Cc1nn(C)c2c1/C=C/c1n[nH]c3ccc(cc13)-c1cnn(C)c1CN(C)CCN(C)C2=O [Ex. 15, (18E)-8,10,13,15,17-pentamethyl-2,8,9,10,11,12,13,15-octahydro-14H-3,5-ethenotripyrazolo[3,4-f:3′,4′-j:4″,3″-n][1,4]diazacyclohexadecin-14-one] | 4.6 nM | 0.157 nM | 0.161 nM | 2.77 nM | 0.53 nM |  |  |  |
| Cc1nn(CCN2CCCC2)c2c1/C=C/c1n[nH]c3ccc(cc13)-c1cnn(C)c1OCCN(C)C2=O [Ex. 18, (17E)-8,12,16-trimethyl-14-[2-(pyrrolidin-1-yl)ethyl]-2,11,12,14-tetrahydro-8H-3,5-ethenotripyrazolo[3,4-f:3′,4′-j:4″,3″-n][1,4]oxazacyclopentadecin-13(10H)-one] | 17.8 nM |  |  |  |  |  |  |  |
| Cc1c2c(nn1CCN1CCCC1)C(=O)N(C)CCOc1c(cnn1C)-c1ccc3[nH]nc(c3c1)/C=C/2 [Ex. 19, (17E)-8,12,16-trimethyl-15-[2-(pyrrolidin-1-yl)ethyl]-2,11,12,15-tetrahydro-8H-3,5-ethenotripyrazolo[3,4-f:3′,4′-j:4″,3″-n][1,4]oxazacyclopentadecin-13(10H)-one] | 15.2 nM |  |  |  |  | 0.564 nM | 1.05 nM |  |
| CN1CCOc2c(cnn2C)-c2ccc3[nH]nc(c3c2)/C=C/c2c(C#N)nn(C)c2C1=O [Ex. 24, (17E)-8,12,14-trimethyl-13-oxo-2,10,11,12,13,14-hexahydro-8H-3,5-ethenotripyrazolo[3,4-f:3′,4′-j:4″,3″-n][1,4]oxazacyclopentadecine-16-carbonitrile] | 141 nM | 0.415 nM | 0.67 nM | 92.9 nM | 0.593 nM | 0.23 nM | 0.475 nM |  |
| CCOc1nn(CCO)c2c1/C=C/c1n[nH]c3ccc(cc13)-c1cnn(C)c1OCCN(C)C2=O [Ex. 27, (17E)-16-ethoxy-14-(2-hydroxyethyl)-8,12-dimethyl-2,11,12,14-tetrahydro-8H-3,5-ethenotripyrazolo[3,4-f:3′,4′-j:4″,3″-n][1,4]oxazacyclopentadecin-13(10H)-one] | 7.6 nM | 1.55 nM | 1.11 nM | 108 nM | 3.03 nM |  |  |  |
| CN1CCOc2c(cnn2C)-c2ccc3[nH]nc(c3c2)/C=C/c2cn(C)nc2C1=O [compound 4, (17E)-8,12,15-trimethyl-2,11,12,15-tetrahydro-8H-3,5-ethenotripyrazolo[3,4-f:3′,4′-j:4″,3″-n][1,4]oxazacyclopentadecin-13(10H)-one] | 21.2 nM |  |  |  |  |  |  |  |
| CCc1c2c(nn1C)C(=O)N(C)CCOc1ccc(F)cc1-c1cc(Cl)c3[nH]nc(c3c1)/C=C/2 [compound 5, (18E)-21-chloro-17-ethyl-7-fluoro-13,16-dimethyl-2,12,13,16-tetrahydro-3,5-ethenodipyrazolo[3,4-f:3′,4′-j][1,4]benzoxazacyclopentadecin-14(11H)-one] | > 10000 nM |  |  |  |  |  |  |  |
| Cc1nn(C)c2c1/C=C/c1n[nH]c3ccc(cc13)-c1cnn(C)c1OCCOCCN(C)C2=O [compound 14, (15E)-3,10,12,14-tetramethyl-5,6,9,10,12,18-hexahydro-3H-19,21-ethenotripyrazolo[3,4-i:3′,4′-m:4″,3″-q][1,4,7]dioxazacyclooctadecin-11(8H)-one] | 384 nM |  |  |  |  |  |  |  |
| (18E)-15-(2-hydroxyethyl)-8,10,13,17-tetramethyl-2,8,9,10,11,12,13,15-octahydro-14H-3,5-ethenotripyrazolo[3,4-f:3′,4′-j:4″,3″-n][1,4]diazacyclohexadecin-14-one [Ex. 26] |  | 0.233 nM | 0.386 nM | 31.1 nM | 0.605 nM |  |  | 15 nM |

Further lines, with some results ahead:

| IC50 (MV-4-11 cells; Homo sapiens, MV4-11) | IC50 (CLK1) | IC50 (CLK2) | IC50 (CLK3) | IC50 (CLK4) | IC50 (FLT3) | IC50 (FLT3-ITD) | Compound | IC50 (MV-4-11 cells) |
| --- | --- | --- | --- | --- | --- | --- | --- | --- |
| < 1 nM | 0.299 nM | 0.16 nM | 10.4 nM | 0.758 nM |  |  | Cc1nn(CCO)c2c1/C=C/c1n[nH]c3ccc(cc13)-c1cnn(C)c1OCCN(C)C2=O [Ex. 16, (17E)-14-(2-hydroxyethyl)-8,12,16-trimethyl-2,11,12,14-tetrahydro-8H-3,5-ethenotripyrazolo[3,4-f:3′,4′-j:4″,3″-n][1,4]oxazacyclopentadecin-13(10H)-one] |  |
| < 0.2 nM | 0.355 nM | 0.253 nM | 9.47 nM | 0.668 nM | 0.093 nM | 0.527 nM | CCOc1nn(C)c2c1/C=C/c1n[nH]c3ccc(cc13)-c1cnn(C)c1OCCN(C)C2=O [Ex. 22, (17E)-16-ethoxy-8,12,14-trimethyl-2,11,12,14-tetrahydro-8H-3,5-ethenotripyrazolo[3,4-f:3′,4′-j:4″,3″-n][1,4]oxazacyclopentadecin-13(10H)-one] |  |
| 4.1 nM | 0.843 nM | 0.225 nM | 5.53 nM | 1.39 nM | 0.416 nM | 0.967 nM | CCc1nn(C)c2c1/C=C/c1n[nH]c3ccc(cc13)-c1cnn(C)c1O[C@@H](C)CN(C)C2=O [Ex. 23, (10S,17E)-16-ethyl-8,10,12,14-tetramethyl-2,11,12,14-tetrahydro-8H-3,5-ethenotripyrazolo[3,4-f:3′,4′-j:4″,3″-n][1,4]oxazacyclopentadecin-13(10H)-one] |  |
| 0.52 nM |  |  |  |  |  |  | CCc1noc2c1/C=C/c1n[nH]c3ccc(cc13)-c1cnn(C)c1OCCN(C)C2=O [Ex. 25, (17E)-16-ethyl-8,12-dimethyl-2,8,11,12-tetrahydro-3,5-etheno[1,2]oxazolo[5,4-f]dipyrazolo[3,4-j:4′,3′-n][1,4]oxazacyclopentadecin-13(10H)-one] |  |
| < 0.2 nM |  |  |  |  |  |  | CCn1nc(C)c2c1C(=O)N(C)CCOc1c(cnn1C)-c1ccc3[nH]nc(c3c1)/C=C/2 [compound 11, (17E)-14-ethyl-8,12,16-trimethyl-2,11,12,14-tetrahydro-8H-3,5-ethenotripyrazolo[3,4-f:3′,4′-j:4″,3″-n][1,4]oxazacyclopentadecin-13(10H)-one] |  |
| 1.1 nM |  |  |  |  | 0.187 nM | 0.775 nM | Cc1nn(C(C)C)c2c1/C=C/c1n[nH]c3ccc(cc13)-c1cnn(C)c1OCCN(C)C2=O [compound 20, (17E)-8,12,16-trimethyl-14-(propan-2-yl)-2,11,12,14-tetrahydro-8H-3,5-ethenotripyrazolo[3,4-f:3′,4′-j:4″,3″-n][1,4]oxazacyclopentadecin-13(10H)-one] |  |
| < 0.2 nM |  |  |  |  |  |  | [2H]C([2H])([2H])N1CCOc2c(cnn2C)-c2ccc3[nH]nc(c3c2)/C=C/c2c(CC)nn(C([2H])([2H])[2H])c2C1=O [compound 21, (17E)-16-ethyl-8-methyl-12,14-bis[(^2H3)methyl]-2,11,12,14-tetrahydro-8H-3,5-ethenotripyrazolo[3,4-f:3′,4′-j:4″,3″-n][1,4]oxazacyclopentadecin-13(10H)-one] |  |
